Experimental data taken from article PMC11678782, “The Antioxidant and Anti-Inflammatory Activities of the Methanolic Extract, Fractions, and Isolated Compounds from Eriosema montanum Baker f. (Fabaceae)” (Molecules, 2024).
Values after ≈ are worked out from the molar mass of the structure shown.

Legend:
[1] = DPPH radical scavenging assay; settings: 30 min, 517 nm
Experimental: Three in vitro antioxidant assays, namely, 2,2′-azinobis-(3-ethylbenzothiazoline-6-sulfonic acid (ABTS), 2,2′-diphenyl-1-picrylhydrazyl (DPPH), and ferric ion reducing antioxidant power (FRAP), were used to determine the antioxidant activity according to methods previously reported. Ascorbic acid (0 to 200 μg/mL) was used as positive control in these experiments, and Formula (1) below allowed us to evaluate the percentage of radical scavenging capacity. The inhibitory concentration (IC50) values were evaluated by plotting a nonlinear graph of percentage radical scavenging capacity versus logarithm of tested concentrations. Scavenging capacity (%) = [(A0 − A1)/A0] × 100(1) where A0 is absorbance of negative control, and A1 is absorbance of extract with ABTS^•+ radical cation.
To be able to determine the DPPH^• scavenging capacity of EMME, we performed a serial dilution of 40 μL of the sample (1 mg/mL) with methanol on a 96-well microtiter plate, with 160 μL of solution of DPPH^• thereafter (25 μg/mL). The incubation at 25 °C in the dark was performed after 30 min, with the absorbance values measured at 517 nm on a SpectraMax iD3 multi-mode microplate against a blank (extract plus methanol without DPPH^•). […]. Methanol with DPPH^• served as the negative control. Using Formula (1), the DPPH scavenging capability was calculated at the measured concentrations above, and as previously enumerated, the IC50 values were also calculated, as indicated in the previously described procedure.
(§1) The IC50 values were calculated for each biological experiment using the nonlinear regression curve of the % inhibitory activity versus the logarithm (log10) of the various tested concentrations using GraphPad Prism 6.0 software (GraphPad Software, Inc., San Diego, CA, USA). The data are shown as mean ⁱ SEM (standard error of the mean) values, and all biological experiments were conducted in triplicate (n = 3). The statistical analysis was conducted using GraphPad Prism 6.0 software (GraphPad Software, Inc., San Diego, CA, USA). One-way analysis of variance (ANOVA) was used to compare the data across the tested samples and/or controls, and Student–Newman–Keuls or Dunnett’s tests were then performed. A p-value of less than 0.05 indicated a significant difference in the results.

[2] = target: T1, soybeans 15-LOX (Glycine max, UniProt P08170); experiment: 15-lipoxygenase enzyme inhibitory assay (FOX); format: biochemical, soybean; settings: linoleic acid substrate, FOX reagent, 560 nm; read-out: IC50 15-LOX (converted)
T1 construct: purchased Merck, Darmstadt, Germany
T1 sequence (P08170 1-839): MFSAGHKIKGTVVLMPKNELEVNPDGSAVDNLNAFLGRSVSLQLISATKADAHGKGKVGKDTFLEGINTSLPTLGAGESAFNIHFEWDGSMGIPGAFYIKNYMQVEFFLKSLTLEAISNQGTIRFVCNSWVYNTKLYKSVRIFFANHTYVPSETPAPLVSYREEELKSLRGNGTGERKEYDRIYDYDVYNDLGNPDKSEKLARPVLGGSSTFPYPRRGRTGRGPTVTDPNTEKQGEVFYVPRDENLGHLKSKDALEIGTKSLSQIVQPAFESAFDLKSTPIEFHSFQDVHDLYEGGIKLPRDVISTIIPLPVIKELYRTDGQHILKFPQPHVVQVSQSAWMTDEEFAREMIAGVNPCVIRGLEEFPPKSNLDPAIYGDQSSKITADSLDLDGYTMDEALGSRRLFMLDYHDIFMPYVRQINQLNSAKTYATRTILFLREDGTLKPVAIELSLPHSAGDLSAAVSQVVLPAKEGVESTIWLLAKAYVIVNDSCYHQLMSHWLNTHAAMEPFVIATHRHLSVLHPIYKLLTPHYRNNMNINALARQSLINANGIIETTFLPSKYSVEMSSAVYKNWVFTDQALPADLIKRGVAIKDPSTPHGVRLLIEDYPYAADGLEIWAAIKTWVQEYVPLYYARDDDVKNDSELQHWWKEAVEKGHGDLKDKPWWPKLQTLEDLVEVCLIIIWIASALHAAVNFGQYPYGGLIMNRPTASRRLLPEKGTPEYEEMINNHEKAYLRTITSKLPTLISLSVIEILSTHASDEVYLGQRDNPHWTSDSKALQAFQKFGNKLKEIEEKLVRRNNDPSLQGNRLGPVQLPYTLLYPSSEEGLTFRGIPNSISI
Experimental: The method developed by Pinto et al. was used to determine the effect of the tested samples on 15-LOX inhibitory activity, with slight modifications to the 96-well microtitre plate format. Using 20 µL of tested samples at varying concentrations (3.90 to 500 µg/mL), the soybeans 15-LOX (Merck, Darmstadt, Germany) (40 µL, 200 UI/mL) were incubated at 25 °C for 5 min. The plate was then incubated at 25 °C for 20 min in the dark; after, 40 µL of linoleic acid (final concentration, 140 μM) produced in Tris-HCl buffer (50 mM, pH 7.4) was added. A total of 100 µL of the FOX reagent—sulfuric acid (30 mM), xylenol orange (100 μM), and ferrous II) sulfate (100 μM) mixed in methanol/water (9:1)—was added to terminate the test. A SpectraMax iD3 multi-mode microplate reader (Molecular Devices, San Jose, CA, USA) was used to measure the absorbance at 560 nm following 30 min of incubation at 25 °C in the dark. Gallic acid (0.78 to 100 µg/mL) was employed as the usual inhibitor of 15-LOX, while DMSO at 5% (v/v) served as the negative control. With the exception of adding the substrate after the FOX reagent, the blanks were prepared exactly like the tested samples. Formula (2) below was used to compute the 15-LOX inhibitory activity. 15 LOX inhibitory activity (%) = 100 − [(A0 − A1) − (A2 − A1)] × 100(2) where A0 is absorbance of test samples, A1 is absorbance of blank, and A2 is absorbance of negative control (DMSO 5%).
as §1

| Structure (SMILES) | IC50 DPPH [1] [µg/mL] | IC50 [2] [µM] | IC50 DPPH ([1]; listed as genistin) [µg/mL] |
| --- | --- | --- | --- |
| CCCCCCCCCCCCCCCC [Compound 1, n-hexadecane] | >100 | > 883 | – |
| CCCCCCCCCCCCCCCCCCCCCCCO [Compound 3, tricosan-1-ol] | >100 | > 587 | – |
| O=c1c2c(O)cc(O)cc2oc2oc3cc(O)ccc3c12 [Compound 4, lupinalbin A] | >100 | > 704 | – |
| O=c1c(-c2ccc(O)cc2)coc2cc(O[C@@H]3O[C@H](CO)[C@@H](O)[C@H](O)[C@H]3O)cc(O)c12 [Compound 5, genistin] | 99.89 ± 1.26 (≈ 231 µM) | 414 | 91.02 (≈ 211 µM) |
| CO[C@H]1[C@H](O)[C@@H](O)[C@@H](O)[C@H](O)[C@@H]1O [Compound 6, D-pinitol] | >100 | > 1030 | – |
| CC[C@H](/C=C/[C@@H](C)[C@H]1CC[C@H]2[C@@H]3CC=C4C[C@@H](O[C@@H]5O[C@H](CO)[C@@H](O)[C@H](O)[C@H]5O)CC[C@]4(C)[C@H]3CC[C@]12C)C(C)C [Compound 7, stigmasterol glucoside] | >100 | > 348 | – |
